# Reference: patent US9365549B2, “Hepatitis C virus inhibitors” (THERAVANCE BIOPHARMA R&D IP, LLC, priority 2012, dated 2016)
# How the values were obtained:
# [1] = tested on: HCV genotype 1a replicon cell line; assay: HCV Genotype 1a Replicon Assay; format: cell-based; conditions: Hepatitis C virus, Huh7.5 cell background, NS3-specific protease activity in lysates, 48 or 72 hours, read-out: pEC50 Genotype 1a (converted)
# Description: Assay 2: HCV Genotype 1a Replicon Assay
# The HCV genotype 1a replicon cell line was obtained from Apath LLC (APC89; Huh7.5 cell background). This subgenomic replicon contains the N-terminus of the HCV core protein fused to the neomycin-resistance selectable marker. The EMCV IRES lies downstream and drives expression of the non-structural proteins NS3-NS5B. Compound potencies were determined using the NS3-specific protease activity in lysates as a measurement of compound inhibition of replicon levels.
# (§1) Cells were grown at 37° C. in a 5% CO2 humidified incubator in DMEM (Invitrogen) with 10% FBS (HyClone), 1×NEAA (Invitrogen), 1× Pen-Strep (Invitrogen), and 850 μg/mL G418 (Invitrogen). On day 1 of the assay, cells were plated at 15,000 cells/well in black 96-well tissue culture plates (Costar) in 200 μL media lacking G418. […] Compounds were initially diluted in DMSO and then diluted another 200× in media to bring the final DMSO concentration down to 0.5%. The cells were incubated with test compounds for 48 or 72 hours. At the end of the incubation period, media and compound were removed from the plates.
# To determine the NS3-specific protease activity in lysates, the cells were lysed at room temperature in 50 μL/well of 50 mM Hepes pH 7.5, 150 mM NaCl, 15% Glycerol, 0.15% Triton X-100, 10 mM DTT for 20 minutes with shaking. 50 μL of an NS3/4a protease-specific FRET substrate (Anaspec RET S1 Cat#22991) was then added to the wells at a final concentration of 15 μM. The plates were incubated at 37° C. for 20 minutes, which corresponds to a timepoint at which the protease activity is still in the linear phase. Protease activity was determined by measuring fluorescence (Excitation: 340 nm; Emission: 509 nm).
# To analyze the data, the fluorescence was plotted vs. the compound concentration, and EC50 values were determined from a 4-parameter robust fit model using GraphPad Prism software.
# [2] = tested on: HCV genotype 1b replicon cell line; assay: HCV Genotype 1b Replicon Assay; format: cell-based; conditions: Hepatitis C virus, Huh-7, Huh7 cell background, luciferase activity readout, 48 hours
# Source text: Assay 1: HCV Genotype 1b Replicon Assay
# The HCV genotype 1b replicon cell line was obtained from Apath LLC (Brooklyn, N.Y.) (APC144; Huh7 cell background). This subgenomic replicon contains the N-terminus of the HCV core protein fused to the neomycin-resistance selectable marker. The EMCV IRES lies downstream and drives expression of humanized Renilla luciferase fused to the non-structural proteins NS3-NS5B. This cell line was used to determine compound potency using the luciferase activity readout as a measurement of compound inhibition of replicon levels.
# as §1, with “500” for “850”, “10,000” for “15,000”, “white” for “black”, “48” for “48 or 72”, “plates and the luciferase activity was determined using Promega Renilla-Glo reagents.” for “plates.”
# To analyze the data, the luciferase activity was plotted vs. the compound concentration, and EC50 values were determined from a 4-parameter robust fit model with the GraphPad Prism software package (GraphPad Software, Inc., San Diego, Calif.). Results are expressed as the negative decadic logarithm of the EC50 value, pEC50.
SMILES,EC50 [1] [nM],EC50 [2] [nM]
"COC(=O)N[C@H](C(=O)N1CC(C2CC2)=C[C@H]1c1nc(-c2ccc(-c3cc(Cl)c(NC(=O)c4ccc(N5CCN(C(=O)[C@H]6CC6(C)C)C[C@H]5C)nc4)cc3OC(F)(F)F)cc2)c[nH]1)C(C)C [Example 4, ((S)-1-{(S)-2-[4-(5′-Chloro-4′-{[6-((R)-4-(S)-2,2-dimethylcyclopropanecarbonyl-2-methyl-piperazin-1-yl)-pyridine-3-carbonyl]-amino}-2′-trifluoromethoxy-biphenyl-4-yl)-1H-imidazol-2-yl]-4-cyclopropyl-2,5-dihydro-pyrrole-1-carbonyl}-2-methyl-propyl)-carbamic acid methyl ester]",< 0.1,< 0.1
"COC(=O)N[C@H](C(=O)N1C[Si](C)(C)C[C@H]1c1nc(-c2ccc(-c3cc(Cl)c(NC(=O)c4ccc(N5CCN(C(=O)[C@H]6CC6(C)C)C[C@H]5C)nc4)cc3OC(F)(F)F)cc2)c[nH]1)C(C)C [Example 5, ((S)-1-{(R)-5-[4-(5′-Chloro-4′-{[6-((R)-4-(S)-2,2-dimethylcyclopropanecarbonyl-2-methyl-piperazin-1-yl)-pyridine-3-carbonyl]-amino}-2′-trifluoromethoxy-biphenyl-4-yl)-1H-imidazol-2-yl]-3,3-dimethyl-[1,3]azasilolidine-1-carbonyl}-2-methyl-propyl)-carbamic acid methyl ester]",< 0.1,< 0.1
COC(=O)N[C@H](C(=O)N1C[C@@H](C)C[C@H]1c1nc2c(ccc3cc(-c4cc(F)c(NC(=O)c5ccc(N6CCN(C(=O)C(C)(C)C)C[C@H]6C)nc5)cc4OC(F)(F)F)ccc32)[nH]1)C1CCOCC1 [Example 5-2],< 0.1,< 0.1
COC(=O)N[C@H](C(=O)N1C[C@@H](C)C[C@H]1c1nc2c(ccc3cc(-c4cc(F)c(NC(=O)c5ccc(N6CCN(C(=O)C(C)(C)CO)C[C@H]6C)nc5)cc4OC(F)(F)F)ccc32)[nH]1)C1CCOCC1 [Example 5-3],< 0.1,< 0.1
COC(=O)N[C@H](C(=O)N1C[C@@H](C)C[C@H]1c1nc2c(ccc3cc(-c4cc(Cl)c(C(=O)Nc5ccc(N6CCN(C(=O)C(C)(C)C)C[C@H]6C)nc5)cc4OC(F)(F)F)ccc32)[nH]1)C1CCOCC1 [Example 5-6],< 0.1,< 0.1
COC(=O)N[C@H](C(=O)N1C[C@@H](C)C[C@H]1c1nc2c(ccc3cc(-c4cc(Cl)c(C(=O)Nc5ccc(N6CCN(C(=O)C(C)(C)CO)C[C@H]6C)nc5)cc4OC(F)(F)F)ccc32)[nH]1)C1CCOCC1 [Example 5-7],< 0.1,< 0.1
COC(=O)N[C@H](C(=O)N1[C@@H]2C[C@@H]2CC[C@H]1c1nc(-c2ccc(-c3cc(Cl)c(NC(=O)c4ccc(N5CCN(C(=O)C(C)(C)C)C[C@H]5C)nc4)cc3OC(F)(F)F)cc2)c[nH]1)C(C)C [Example 5-10],< 0.1,< 0.1
"COC(=O)N[C@H](C(=O)N1C[Si](C)(C)C[C@H]1c1nc(-c2ccc(-c3ccc(NC(=O)c4ccc(N5CCN(C(=O)C(C)(C)C)C[C@H]5C)nc4)cc3OC(F)(F)F)cc2)c[nH]1)C(C)C [Example 7, [(S)-1-((R)-5-{4-[4′-({6-[(R)-4-(2,2-dimethyl-propionyl)-2-methyl-piperazin-1-yl]-pyridine-3-carbonyl}-amino)-2′-trifluoromethoxy-biphenyl-4-yl]-1H-imidazol-2-yl}-3,3-dimethyl-[1,3]azasilolidine-1-carbonyl)-2-methyl-propyl]-carbamic acid methyl ester]",0.1 to 1,< 0.1
"COC(=O)N[C@H](C(=O)N1C[C@@H](C)C[C@H]1c1nc2c(ccc3cc(-c4cc(Cl)c(NC(=O)c5ccc(N6CCN(C(=O)C(C)(C)C)C[C@H]6C)nc5)cc4OC(F)(F)F)ccc32)[nH]1)C(C)C [Example 8, [(S)-1-((2S,4S)-2-{7-[5-Chloro-4-({6-[(R)-4-(2,2-dimethyl-propionyl)-2-methyl-piperazin-1-yl]-pyridine-3-carbonyl}-amino)-2-trifluoromethoxy-phenyl]-3H-naphtho[1,2-d]imidazol-2-yl}-4-methyl-pyrrolidine-1-carbonyl)-2-methyl-propyl]-carbamic acid methyl ester]",< 0.1,< 0.1
"COC(=O)N[C@H](C(=O)N1C[C@@H](C)C[C@H]1c1nc2c(ccc3cc(-c4cc(Cl)c(NC(=O)c5ccc(N6CCN(C(=O)C7CC7)C[C@H]6C)nc5)cc4OC(F)(F)F)ccc32)[nH]1)C(C)C [Example 9, ((S)-1-{(2S,4S)-2-[7-(5-Chloro-4-{[6-((R)-4-cyclopropanecarbonyl-2-methyl-piperazin-1-yl)-pyridine-3-carbonyl]-amino}-2-trifluoromethoxy-phenyl)-3H-naphtho[1,2-d]imidazol-2-yl]-4-methyl-pyrrolidine-1-carbonyl}-2-methyl-propyl)-carbamic acid methyl ester]",< 0.1,< 0.1
"COC(=O)N[C@H](C(=O)N1C[C@@H](C)C[C@H]1c1nc2c(ccc3cc(-c4cc(Cl)c(NC(=O)c5ccc(N6CCN(C(=O)[C@H]7CC7(C)C)C[C@H]6C)nc5)cc4OC(F)(F)F)ccc32)[nH]1)C(C)C [Example 10, [(S)-1-((2S,4S)-2-{7-[5-Chloro-4-({6-[(R)-4-((S)-2,2-dimethylcyclopropanecarbonyl)-2-methyl-piperazin-1-yl]-pyridine-3-carbonyl}-amino)-2-trifluoromethoxy-phenyl]-3H-naphtho[1,2-d]imidazol-2-yl}-4-methyl-pyrrolidine-1-carbonyl)-2-methyl-propyl]-carbamic acid methyl ester]",< 0.1,< 0.1
"COC(=O)N[C@H](C(=O)N1C[C@@H](C)C[C@H]1c1nc2c(ccc3cc(-c4ccc(C(=O)Nc5ccc(N6CCN(C(=O)C(C)(C)C)C[C@H]6C)nc5)cc4OC(F)(F)F)ccc32)[nH]1)C(C)C [Example 13, ((S)-1-{(2S,4S)-2-[7-(4-{6-[(R)-4-(2,2-Dimethyl-propionyl)-2-methyl-piperazin-1-yl]-pyridin-3-ylcarbamoyl}-2-trifluoromethoxy-phenyl)-3H-naphth[1,2-d]imidazol-2-yl]-4-methyl-pyrrolidine-1-carbonyl}-2-methyl-propyl)-carbamic acid methyl ester]",< 0.1,< 0.1
"COC(=O)N[C@H](C(=O)N1C[C@@H](C)C[C@H]1c1nc2c(ccc3cc(-c4cc(Cl)c(NC(=O)c5ccc(N6CCN(C(=O)C(C)(C)C)C[C@H]6C)nc5)cc4OC(F)(F)F)ccc32)[nH]1)C1CCOCC1 [Example 14, [(S)-2-((2S,4S)-2-{7-[4-({6-[(R)-4-(2,2-Dimethyl-propionyl)-2-methyl-piperazin-1-yl]-pyridine-3-carbonyl}-amino)-5-chloro-2-trifluoromethoxy-phenyl]-3H-naphtho[1,2-d]imidazol-2-yl}-4-methyl-pyrrolidin-1-yl)-2-oxo-1-(tetrahydropyran-4-yl)-ethyl]-carbamic acid methyl ester]",< 0.1,< 0.1
"COC(=O)N[C@H](C(=O)N1C[C@@H](C)C[C@H]1c1nc2c(ccc3cc(-c4cc(Cl)c(NC(=O)c5ccc(N6CCN(C(=O)C(C)(C)CO)C[C@H]6C)nc5)cc4OC(F)(F)F)ccc32)[nH]1)C1CCOCC1 [Example 15, [(S)-2-((2S,4S)-2-{7-[4-({6-[(R)-4-(3-Hydroxy-2,2-dimethyl-propionyl)-2-methyl-piperazin-1-yl]-pyridine-3-carbonyl}-amino)-5-chloro-2-trifluoromethoxy-phenyl]-3H-naphtho[1,2-d]imidazol-2-yl}-4-methyl-pyrrolidin-1-yl)-2-oxo-1-(tetrahydropyran-4-yl)-ethyl]-carbamic acid methyl ester]",< 0.1,< 0.1
